A word on the Ki: it is the equilibrium dissociation constant of an inhibitor or competing ligand from its target. As a reminder, the IC50 is the point on the concentration scale where inhibition reaches its midpoint. A high value points to weaker potency.

Experiment [1] concerns the target T1, Bile salt-activated lipase (Bos taurus, UniProt P30122).
T1 sequence (P30122 whole entry): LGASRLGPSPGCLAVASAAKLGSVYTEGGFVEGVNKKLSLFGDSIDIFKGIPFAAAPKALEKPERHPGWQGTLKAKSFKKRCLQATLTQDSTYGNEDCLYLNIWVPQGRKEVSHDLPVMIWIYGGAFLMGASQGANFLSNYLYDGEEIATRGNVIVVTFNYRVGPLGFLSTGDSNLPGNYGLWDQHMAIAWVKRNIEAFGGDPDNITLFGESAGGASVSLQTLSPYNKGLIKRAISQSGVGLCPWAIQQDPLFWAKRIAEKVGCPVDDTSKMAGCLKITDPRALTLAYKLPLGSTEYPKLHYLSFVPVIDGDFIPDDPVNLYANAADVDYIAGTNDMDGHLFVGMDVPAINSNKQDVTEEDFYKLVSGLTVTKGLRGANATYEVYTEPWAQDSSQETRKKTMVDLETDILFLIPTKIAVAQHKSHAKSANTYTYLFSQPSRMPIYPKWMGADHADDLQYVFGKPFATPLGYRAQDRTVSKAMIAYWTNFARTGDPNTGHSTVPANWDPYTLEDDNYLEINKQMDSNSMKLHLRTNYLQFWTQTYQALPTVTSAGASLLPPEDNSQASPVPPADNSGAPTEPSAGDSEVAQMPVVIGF
Description: Inhibitory activity against bovine pancreatic CEase in presence of pNPB chromogenic substrate by spectrophotometry

The target in the next experiment is Acetylcholinesterase (Electrophorus electricus, UniProt O42275).
Sequence of Acetylcholinesterase (O42275 whole entry): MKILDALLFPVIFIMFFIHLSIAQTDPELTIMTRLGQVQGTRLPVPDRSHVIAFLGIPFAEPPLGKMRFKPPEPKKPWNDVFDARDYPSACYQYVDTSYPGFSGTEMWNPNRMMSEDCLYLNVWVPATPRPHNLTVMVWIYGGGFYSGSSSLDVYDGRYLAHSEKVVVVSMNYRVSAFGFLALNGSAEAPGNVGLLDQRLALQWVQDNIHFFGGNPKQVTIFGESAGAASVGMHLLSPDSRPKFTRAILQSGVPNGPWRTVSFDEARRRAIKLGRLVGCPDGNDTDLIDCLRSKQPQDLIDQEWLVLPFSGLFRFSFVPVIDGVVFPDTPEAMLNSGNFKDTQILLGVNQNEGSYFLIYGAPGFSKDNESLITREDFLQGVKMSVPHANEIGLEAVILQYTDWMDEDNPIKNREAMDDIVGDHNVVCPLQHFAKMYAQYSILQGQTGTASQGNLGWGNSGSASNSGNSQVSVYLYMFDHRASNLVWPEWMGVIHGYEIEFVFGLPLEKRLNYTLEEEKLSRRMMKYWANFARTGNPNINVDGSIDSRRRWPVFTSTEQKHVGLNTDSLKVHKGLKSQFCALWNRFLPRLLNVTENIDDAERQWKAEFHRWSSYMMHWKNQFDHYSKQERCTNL

Description for Acetylcholinesterase: Inhibitory activity AChE from Electrophorus electricus using ATCh substrate and DTNB by spectrophotometry

In the case of `O=C(Nc1nc2sc3c(c2c(=O)s1)CCN(Cc1ccccc1)C3)c1ccccc1`, the Ki in experiment [1] was over 50 µM. The IC50 on Acetylcholinesterase was 5.2 µM.

As for `CCN(CC)c1nc2sc3ccccc3c2c(=O)o1`, in experiment [1], the inhibitory constant (Ki) worked out at 7.5 µM. In addition, the IC50 against Acetylcholinesterase is over 50 µM.

In the case of `CCN(CC)c1nc2sc3c(c2c(=O)o1)CCC3`, in experiment [1], the Ki stood at 0.58 µM. Moreover, the IC50 on Acetylcholinesterase is over 50 µM.

As to `CN(C)c1nc2sc3c(c2c(=O)o1)CCCC3`, the Ki in experiment [1] was 2.15 µM. The compound also displayed an IC50 on Acetylcholinesterase of over 50 µM.

Regarding `CN(C)c1nc2sc3c(c2c(=O)o1)CCN(C(=O)c1ccccc1)C3`, the inhibition constant Ki in experiment [1] is over 50 µM. Half-maximal inhibition at Acetylcholinesterase (IC50) required 35.6 µM.

Turning to `CN(C)c1nc2sc3c(c2c(=O)o1)CCC3`, the Ki in experiment [1] came to 0.63 µM. At Acetylcholinesterase, this compound registered an IC50 of over 50 µM.

`CN(C)c1nc2sc3c(c2c(=O)o1)CCSC3`: in experiment [1], the Ki came to 5.76 µM. Besides, the IC50 against Acetylcholinesterase was over 50 µM.

With `CCN1CCc2c(sc3nc(N(C)C)oc(=O)c23)C1`, the Ki in experiment [1] was over 50 µM. For the same compound, the IC50 on Acetylcholinesterase amounted to 10.5 µM.

`O=c1sc(Nc2ccccc2)nc2sc3c(c12)CCN(Cc1ccccc1)C3`: the Ki in experiment [1] was over 50 µM. The IC50 on Acetylcholinesterase is 1.03 µM.

`O=c1oc(N2CCOCC2)nc2sc3c(c12)CCN(Cc1ccccc1)C3`: the Ki in experiment [1] was over 50 µM. On Acetylcholinesterase, this compound gave an IC50 of 0.77 µM.

As for `Nc1nc2sc3c(c2c(=O)o1)CCN(Cc1ccccc1)C3`, the Ki in experiment [1] is over 50 µM. This compound also had an IC50 against Acetylcholinesterase of 5.9 µM.

As for `CCN(CC)c1nc2sc3c(c2c(=O)o1)C(C)CCC3` (stereo not drawn), in experiment [1], the Ki was found to be 1.64 µM. Moreover, on Acetylcholinesterase, the IC50 is over 50 µM.

Turning to `CC(C)Nc1nc2sc3c(c2c(=O)o1)CCN(Cc1ccccc1)C3`, the Ki in experiment [1] was over 50 µM. The half-inhibitory concentration (IC50) against Acetylcholinesterase stood at 0.74 µM.

With `O=C(Nc1nc2sc3c(c2c(=O)o1)CCN(Cc1ccccc1)C3)c1ccccc1`, in experiment [1], the inhibitory constant (Ki) was over 50 µM. The IC50 on Acetylcholinesterase is 2.86 µM.

For the compound `O=c1oc(N2CCOCC2)nc2sc3c(c12)CCCC3`, the Ki in experiment [1] was 5.7 µM. The compound further yielded an IC50 against Acetylcholinesterase of over 50 µM.

With `O=c1oc(NC2CCCCC2)nc2sc3c(c12)CCN(Cc1ccccc1)C3`, the Ki in experiment [1] was over 50 µM.

Turning to `CN(Cc1ccccc1)c1nc2sc3c(c2c(=O)o1)CCN(Cc1ccccc1)C3`, the Ki in experiment [1] is over 50 µM. Also, 0.84 µM corresponded to half-maximal inhibition on Acetylcholinesterase (IC50).

Take `CC(C)Nc1nc2sc3c(c2c(=O)o1)CCCC3`: the Ki in experiment [1] was over 50 µM. The compound also had an IC50 on Acetylcholinesterase of over 50 µM.

Consider `CN(C)c1nc2sc3c(c2c(=O)o1)CCN(Cc1ccccc1)C3`, for which, in experiment [1], the Ki is over 50 µM. On Acetylcholinesterase, 0.89 µM corresponded to half-maximal inhibition (IC50) and the Ki turned out to be 1.7 µM.

`CN(C)c1nc2sc3c(c2c(=O)o1)CCOC3`: the Ki in experiment [1] is over 50 µM. Further, the IC50 against Acetylcholinesterase is over 50 µM.

Take `O=c1oc(N2CCN(Cc3ccccc3)CC2)nc2sc3c(c12)CCN(Cc1ccccc1)C3`: the Ki in experiment [1] was over 50 µM. At Acetylcholinesterase, this compound showed a half-maximal inhibitory concentration (IC50) of 1.32 µM.

Consider `CCN(CC)c1nc2sc(C)c(C)c2c(=O)o1`, for which the Ki in experiment [1] was 4.3 µM. This compound also displayed an IC50 at Acetylcholinesterase of over 50 µM.

For `CC(C)Nc1nc2sc3c(c2c(=O)s1)CCN(Cc1ccccc1)C3`, the Ki in experiment [1] is over 50 µM. Besides, it took 0.58 µM to reach half-maximal inhibition against Acetylcholinesterase (IC50).

For `CCN(CC)c1nc2sc3c(c2c(=O)o1)CCN(Cc1ccccc1)C3`, the Ki in experiment [1] was over 50 µM. The compound further returned an IC50 on Acetylcholinesterase of 2.08 µM.

Consider `O=c1oc(Nc2ccccc2)nc2sc3c(c12)CCN(Cc1ccccc1)C3`, for which the Ki in experiment [1] is over 50 µM. On Acetylcholinesterase, this compound came in with an IC50 of 0.94 µM.

Regarding `CN1CCc2c(sc3nc(N(C)C)oc(=O)c23)C1`, the Ki in experiment [1] is over 50 µM. Moreover, at Acetylcholinesterase, the half-inhibitory concentration (IC50) is 38.9 µM.

`CCN(CC)c1nc2sc3c(c2c(=O)o1)CCCCC3`: the Ki in experiment [1] is 6 µM. On Acetylcholinesterase, this compound registered an IC50 of over 50 µM.

Consider `CCN(CC)c1nc2scc(C)c2c(=O)o1`, for which, in experiment [1], the Ki stood at 15 µM. The compound also returned a concentration for half-maximal inhibition (IC50) against Acetylcholinesterase of over 50 µM.

On to `CCN(CC)c1nc2sc(C(N)=O)c(C)c2c(=O)o1`, for which the inhibitory constant (Ki) in experiment [1] is over 50 µM. On Acetylcholinesterase, the IC50 was over 50 µM.

Take `CC(C)CN1CCc2c(sc3nc(N(C)C)oc(=O)c23)C1`: the Ki in experiment [1] was over 50 µM. Also, at Acetylcholinesterase, half-maximal inhibition (IC50) required 0.36 µM and the Ki was determined as 0.66 µM.

Consider `CN(c1nc2sc3c(c2c(=O)o1)CCCC3)C1CCCCC1`, for which the Ki in experiment [1] was 18 µM. Further, on Acetylcholinesterase, the IC50 was over 50 µM.

Consider `CCN(CC)c1nc2sc3c(c2c(=O)o1)CCCC3`, for which, in experiment [1], the inhibitory constant (Ki) is 1.86 µM. The compound also came in with an IC50 at Acetylcholinesterase of over 50 µM.

Turning to `COc1ccc(CN(C)c2nc3sc4c(c3c(=O)o2)CCN(Cc2ccccc2)C4)cc1OC`, the Ki in experiment [1] was over 50 µM. In addition, 0.33 µM corresponded to half-maximal inhibition on Acetylcholinesterase (IC50).

On to `Nc1nc2sc3c(c2c(=O)s1)CCN(Cc1ccccc1)C3`, for which the Ki in experiment [1] was over 50 µM. Half-maximal inhibition against Acetylcholinesterase (IC50) required 1.2 µM.

As to `O=c1sc(NC2CCCCC2)nc2sc3c(c12)CCN(Cc1ccccc1)C3`, the Ki in experiment [1] was over 50 µM. On Acetylcholinesterase, this compound gave an IC50 of 2.82 µM.

On to `CCN(CC)c1nc2scc(C(C)C)c2c(=O)o1`, for which the Ki in experiment [1] was determined as 6.4 µM. The compound further displayed an IC50 on Acetylcholinesterase of over 50 µM.
